Laboratory results from PMC11012124, “Synthesis of Novel Triazine-Based Chalcones and 8,9-dihydro-7H-pyrimido[4,5-b][1,4]diazepines as Potential Leads in the Search of Anticancer, Antibacterial and Antifungal Agents” (International Journal of Molecular Sciences, 2024).

How the values were obtained:
[1] = tested on: 786-0; experiment: cells; settings: Homo sapiens, 786-0, 48 h; for CC50: read-out: LC50
[2] = tested on: NCI-H322M; experiment: cells; settings: Homo sapiens, 48 h; for CC50: read-out: LC50
[3] = tested on: KM12; experiment: cells; settings: Homo sapiens, KM12, 48 h; for CC50: read-out: LC50
[4] = tested on: EKVX; experiment: cells; settings: Homo sapiens, 48 h; for CC50: read-out: LC50
[5] = tested on: SK-MEL-28; experiment: cells; settings: Homo sapiens, SK-MEL-28, 48 h; for CC50: read-out: LC50
[6] = tested on: CAKI-1; experiment: cells; settings: Homo sapiens, CAKI-1, 48 h; for CC50: read-out: LC50
[7] = tested on: OVCAR-8; experiment: cells; settings: Homo sapiens, OVCAR-8, 48 h; for CC50: read-out: LC50
[8] = tested on: SF-268; experiment: cells; settings: Homo sapiens, SF-268, 48 h; for CC50: read-out: LC50
[9] = tested on: MALME-3M; experiment: cells; settings: Homo sapiens, 48 h; for CC50: read-out: LC50
[10] = tested on: NCI-H460; experiment: cells; settings: Homo sapiens, NCI-H460, 48 h; for CC50: read-out: LC50
[11] = tested on: HL-60(TB); experiment: cells; settings: Homo sapiens, HL-60, 48 h; for CC50: read-out: LC50
[12] = tested on: MDA-MB-468; experiment: cells; settings: Homo sapiens, MDA-MB-468, 48 h; for CC50: read-out: LC50
[13] = tested on: K-562; experiment: cells; settings: Homo sapiens, K562, 48 h; for GI50: K-562, 48 h; for CC50: read-out: LC50
[14] = tested on: A498; experiment: cells; settings: Homo sapiens, A498, 48 h; for CC50: read-out: LC50
[15] = tested on: SN12C; experiment: cells; settings: Homo sapiens, 48 h; for CC50: read-out: LC50
[16] = tested on: UO-31; experiment: cells; settings: Homo sapiens, UO-31, 48 h; for CC50: read-out: LC50
[17] = tested on: HOP-62; experiment: cells; settings: Homo sapiens, HOP-62, 48 h; for CC50: read-out: LC50
[18] = tested on: TK-10; experiment: cells; settings: Homo sapiens, TK-10, 48 h; for CC50: read-out: LC50
[19] = tested on: OVCAR-4; experiment: cells; settings: Homo sapiens, OVCAR-4, 48 h; for CC50: read-out: LC50
[20] = tested on: RXF 393; experiment: cells; settings: Homo sapiens, RXF 393, 48 h; for CC50: read-out: LC50
[21] = tested on: OVCAR-3; experiment: cells; settings: Homo sapiens, OVCAR-3, 48 h; for CC50: read-out: LC50
[22] = tested on: SK-MEL-5; experiment: cells; settings: Homo sapiens, SK-MEL-5, 48 h; for CC50: read-out: LC50
[23] = tested on: MCF7; experiment: cells; settings: Homo sapiens, MCF7, 48 h; for CC50: read-out: LC50
[24] = tested on: HCC-2998; experiment: cells; settings: Homo sapiens, HCC 2998, 48 h; for CC50: read-out: LC50
[25] = tested on: SNB-75; experiment: cells; settings: Homo sapiens, SNB-75, 48 h; for CC50: read-out: LC50
[26] = tested on: HT29; experiment: cells; settings: Homo sapiens, HT-29, 48 h; for CC50: read-out: LC50
[27] = tested on: SF-539; experiment: cells; settings: Homo sapiens, SF-539, 48 h; for CC50: read-out: LC50, SF-539, 48 h
[28] = tested on: OVCAR-5; experiment: cells; settings: Homo sapiens, OVCAR-5, 48 h; for CC50: read-out: LC50
[29] = tested on: CCRF-CEM; experiment: cells; settings: Homo sapiens, 48 h; for CC50: read-out: LC50
[30] = tested on: SK-OV-3; experiment: cells; settings: Homo sapiens, SK-OV-3, 48 h; for CC50: read-out: LC50
[31] = tested on: SF-295; experiment: cells; settings: Homo sapiens, SF-295, 48 h; for CC50: read-out: LC50
[32] = Hemolytic activity, spectrophotometric; format: cell-based, human; settings: human, human red blood cells (huRBC), 5% hematocrit, 200 μg/mL, 37 °C
[33] = tested on: COLO 205; experiment: cells; settings: Homo sapiens, COLO 205, 48 h; for CC50: read-out: LC50
[34] = tested on: HCT-15; experiment: cells; settings: Homo sapiens, HCT-15, 48 h; for CC50: read-out: LC50
[35] = tested on: UACC-257; experiment: cells; settings: Homo sapiens, UACC-257, 48 h; for CC50: read-out: LC50
[36] = tested on: HS 578T; experiment: cells; settings: Homo sapiens, 48 h; for CC50: read-out: LC50
[37] = tested on: UACC-62; experiment: cells; settings: Homo sapiens, UACC-62, 48 h; for CC50: read-out: LC50
[38] = tested on: M14; experiment: cells; settings: Homo sapiens, M14, 48 h; for CC50: read-out: LC50

Cc1ccc(/C=C/C(=O)c2ccc(S(=O)(=O)NCCNc3nc(Nc4ccc(F)cc4)nc(N(C)C)n3)cc2)cc1 [24b]
GI50 [1]: 10.5 µM
CC50 [1]: 51 µM
GI50 [2]: 11.8 µM
CC50 [2]: 62.5 µM
GI50 [3]: 5.41 µM
CC50 [3]: 99.7 µM
GI50 [4]: 4.96 µM
CC50 [4]: 43.3 µM
GI50 [5]: 11.3 µM
CC50 [5]: 49.6 µM
GI50 [6]: 6.98 µM
CC50 [6]: 58 µM
GI50 [7]: 13 µM
CC50 [7]: 56 µM
GI50 [8]: 8.76 µM
CC50 [8]: 90.9 µM
GI50 [9]: 16.4 µM
CC50 [9]: 60.9 µM
GI50 [10]: 4.22 µM
CC50 [10]: 52.3 µM
GI50 [11]: 5.58 µM
CC50 [11]: > 100 µM
GI50 [12]: 4.66 µM
CC50 [12]: 43 µM
GI50 [13]: 3890 nM
CC50 [13]: > 100 µM
GI50 [14]: 12.6 µM
CC50 [14]: 51.4 µM
GI50 [15]: 11.2 µM
CC50 [15]: 48.8 µM
GI50 [16]: 6.77 µM
CC50 [16]: 44.7 µM
GI50 [17]: 15.3 µM
CC50 [17]: 64.8 µM
GI50 [18]: 15.2 µM
CC50 [18]: 61.9 µM
GI50 [19]: 7.79 µM
CC50 [19]: > 100 µM
GI50 [20]: 4.98 µM
CC50 [20]: 44.9 µM
GI50 [21]: 11.3 µM
CC50 [21]: 54.6 µM
GI50 [22]: 8.25 µM
CC50 [22]: 45.9 µM
GI50 [23]: 2010 nM
CC50 [23]: 25.2 µM
GI50 [24]: 4.5 µM
CC50 [24]: 41 µM
GI50 [25]: 7.59 µM
CC50 [25]: > 100 µM
GI50 [26]: 2380 nM
CC50 [26]: 16.2 µM
GI50 [27]: 13 µM
CC50 [27]: 51.7 µM
GI50 [28]: 14.9 µM
CC50 [28]: 53.7 µM
GI50 [29]: 5.28 µM
CC50 [29]: > 100 µM
GI50 [30]: 17 µM
CC50 [30]: > 100 µM
GI50 [31]: 11.5 µM
CC50 [31]: 49.2 µM
hemolysis at 24 h, 200 µg/mL [32]: 1.2%
GI50 [33]: 6.51 µM
CC50 [33]: 55.1 µM
GI50 [34]: 3920 nM
CC50 [34]: 35.3 µM
GI50 [35]: 17.4 µM
CC50 [35]: 62.9 µM
GI50 [36]: 10.7 µM
CC50 [36]: > 100 µM
GI50 [37]: 8.4 µM
CC50 [37]: 47.1 µM
GI50 [38]: 5.91 µM
CC50 [38]: 49.2 µM

COc1cc(/C=C/C(=O)c2cc(OC)c(OC)c(OC)c2)ccc1Oc1nc(NCCO)nc(N2CCOCC2)n1 [20d]
GI50 [1]: 3.46 µM
CC50 [1]: 43.6 µM
GI50 [2]: 2.91 µM
CC50 [2]: 29.3 µM
GI50 [3]: 2.99 µM
CC50 [3]: > 100 µM
GI50 [4]: 2.81 µM
CC50 [4]: 36.6 µM
GI50 [5]: 1.92 µM
CC50 [5]: 7.53 µM
GI50 [6]: 2.43 µM
CC50 [6]: 30.4 µM
GI50 [7]: 2.56 µM
CC50 [7]: 34.7 µM
GI50 [8]: 3.02 µM
CC50 [8]: 71.8 µM
GI50 [9]: 2.67 µM
CC50 [9]: 24.3 µM
GI50 [10]: 1.87 µM
CC50 [10]: 8.69 µM
GI50 [11]: 1.54 µM
CC50 [11]: > 100 µM
GI50 [12]: 1.71 µM
CC50 [12]: 14.3 µM
GI50 [13]: 1910 nM
CC50 [13]: > 100 µM
GI50 [14]: 3.58 µM
CC50 [14]: 37 µM
GI50 [15]: 1.79 µM
CC50 [15]: 23.3 µM
GI50 [16]: 1.66 µM
CC50 [16]: 6.5 µM
GI50 [17]: 2.35 µM
CC50 [17]: 22.4 µM
GI50 [18]: 3.12 µM
CC50 [18]: 30.6 µM
GI50 [19]: 2.92 µM
CC50 [19]: 33.4 µM
GI50 [20]: 1.75 µM
CC50 [20]: 6.94 µM
GI50 [21]: 3.2 µM
CC50 [21]: 34.4 µM
GI50 [22]: 1.77 µM
CC50 [22]: 6.19 µM
GI50 [23]: 1720 nM
CC50 [23]: 61.5 µM
GI50 [24]: 2.23 µM
CC50 [24]: 7.97 µM
GI50 [25]: 1.79 µM
CC50 [25]: 24.2 µM
GI50 [26]: 2830 nM
CC50 [26]: 32.9 µM
GI50 [27]: 1.88 µM
CC50 [27]: 13 µM
GI50 [28]: 3.14 µM
CC50 [28]: 38.4 µM
GI50 [29]: 2.38 µM
CC50 [29]: > 100 µM
GI50 [30]: 2.44 µM
CC50 [30]: 22 µM
GI50 [31]: 2.9 µM
CC50 [31]: 35.2 µM
hemolysis at 24 h, 200 µg/mL [32]: 1.2%
GI50 [33]: 2.1 µM
CC50 [33]: 9.18 µM
GI50 [34]: 1600 nM
CC50 [34]: 10.2 µM
GI50 [35]: 2.83 µM
CC50 [35]: 36.7 µM
GI50 [36]: 3.62 µM
CC50 [36]: > 100 µM
GI50 [37]: 1.69 µM
CC50 [37]: 6.03 µM
GI50 [38]: 2.38 µM
CC50 [38]: 37.9 µM
